EP4775568A1, “NOVEL COMPOUND AND USE THEREOF FOR TREATING PSORIASIS” (Gwangju Institute of Science and Technology, priority 2023, dated 2025)
pIC50: −log10 of the molar value. Each block holds one compound with its values, some of them ahead of it.

Molecular target: T1, CMKLR1 (Homo sapiens, UniProt Q99788)
T1 construct: expressed in transfected cells; host or cells: CHO-K1 cells expressing Gα-16 (CHO-Ga16-CMKLR1)
T1 sequence (Q99788 1-373): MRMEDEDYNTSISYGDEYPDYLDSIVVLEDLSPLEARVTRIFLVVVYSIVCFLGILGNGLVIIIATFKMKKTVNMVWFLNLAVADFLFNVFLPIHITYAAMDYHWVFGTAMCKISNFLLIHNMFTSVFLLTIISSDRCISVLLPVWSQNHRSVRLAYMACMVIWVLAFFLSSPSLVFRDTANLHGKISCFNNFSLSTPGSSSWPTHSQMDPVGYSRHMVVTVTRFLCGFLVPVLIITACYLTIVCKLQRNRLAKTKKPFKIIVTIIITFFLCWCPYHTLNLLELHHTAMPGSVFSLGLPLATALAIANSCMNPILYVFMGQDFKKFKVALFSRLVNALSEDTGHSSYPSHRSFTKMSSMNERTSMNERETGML
Assay: Calcium mobilization assay (CHO-Ga16-CMKLR1 cells, chemerin-9 induced signal)
Type: cell-based
Conditions: for pIC50: calcium signal induced by 2.5 nM chemerin-9; for inhibition at 10 µM: read-out: CMKLR1 activity in CHO cells (% inhibition at 10 µM), 10 µM compound, relative to calcium signal induced by 2.5 nM chemerin-9
Procedure: To establish a CMKLR1 calcium mobilization cell evaluation system, CHO-K1 cells expressing Gα-16 were transfected with pcDNA3.1-derived human CMKLR1-expressing plasmids using Lipofectamine 2000 (Invitrogen, Waltham, Massachusetts, USA). […] The established cell line (CHO-Ga16-CMKLR1) was cultured in F-12 medium (Invitrogen) supplemented with 10% (v/v) fetal bovine serum (FBS; Invitrogen), 0.5 mg/mL geneticin, 0.2 mg/mL hygromycin B (Clontech), and 1% (v/v) antibiotic-antimycotic solution (Invitrogen) under 5% CO2 at 37°C.
100 µL/well was added to a 96-well plate (Corning) and incubated for 24 h. The buffer solution was prepared by adding 1 M HEPES solution to Hanks' Balanced Salt Solution (HBSS) (Invitrogen) and adjusting the pH to 7.4 by dropwise addition of 1 M NaOH.
The fluorescent dye solution was prepared using the buffer provided with the Calcium 5 Assay Kit (Molecular Devices). 40 µL/well of dye solution was added to each well and incubated at 37°C in a 5% CO2 atmosphere for 30 min. […] The final DMSO concentration was adjusted to 2%. 40 µL of each compound solution was added to the well and incubated for 30 min. […] Prism 5 software (GraphPad) was then used to obtain IC50 values for various compounds. IC50 values were derived based on concentration-response curves, and all experiments were repeated at least three times.

inhibition at 10 µM: 28%
SMILES: CC(CC(=O)O)c1ccc(OCc2ccc3c(-c4ccccc4)nn(CC4CCCCC4)c3c2)cc1 (centres unmarked) [Compound 83, 3-(4-((1-(cyclohexylmethyl)-3-phenyl-1H-indazol-6-yl)methoxy)phenyl)butanoic acid]

inhibition at 10 µM: 24%
SMILES: CC(CC(=O)O)c1ccc(OCc2ccc3c(-c4ccccc4)nn(C)c3c2)cc1 (centres unmarked) [Compound 77, 3-(4-((1-methyl-3-phenyl-1H-indazol-6-yl)methoxy)phenyl)butanoic acid]

inhibition at 10 µM: 60%
SMILES: CCCn1nc(-c2ccccc2)c2ccc(COc3ccc(C(C)CC(=O)O)cc3)cc21 (centres unmarked) [Compound 79, 3-(4-((3-phenyl-1-propyl-1H-indazol-6-yl)methoxy)phenyl)butanoic acid]

pIC50 (Table 4, IC50 class): 6.00 to 7.00
SMILES: CC(CC(=O)O)c1ccc(OCc2cnc3c(-c4cc(F)c(O)c(F)c4)nn(C4CCCC4)c3c2)cc1 (centres unmarked) [Compound 74, 3-(4-((1-cyclopentyl-3-(3,5-difluoro-4-hydroxyphenyl)-1H-pyrazolo[4,3-b]pyridin-6-yl)methoxy)phenyl)butanoic acid]

The remaining lines, values behind:

SMILES: COc1ccc(-c2nn(C3CCCC3)c3cc(COc4ccc(C(C)CC(=O)O)cc4)ccc23)cc1 (centres unmarked) [Compound 15, 3-(4-((1-cyclopentyl-3-(4-methoxyphenyl)-1H-indazol-6-yl)methoxy)phenyl)butanoic acid]
pIC50 (Table 2, IC50 class): < 6.00

SMILES: CC(CC(=O)O)c1ccc(OCc2ccc3c(-c4ccc(OC/C=C/C(=O)O)cc4)nn(C4CCCC4)c3c2)cc1 (centres unmarked) [Compound 28, (E)-4-(4-(6-((4-(1-carboxypropan-2-yl)phenoxy)methyl)-1-cyclopentyl-1H-indazol-3-yl)phenoxy)but-2-enoic acid]
pIC50 (Table 2, IC50 class): < 6.00

SMILES: C[C@@H](CC(=O)O)c1ccc(OCc2ccc3c(-c4ccc(O)c([N+](=O)[O-])c4)nn(C4CCCC4)c3c2)cc1 [Compound 37, (S)-3-(4-((1-cyclopentyl-3-(4-hydroxy-3-nitrophenyl)-1H-indazol-6-yl)methoxy)phenyl)butanoic acid]
pIC50 (Table 3, IC50 class): < 6.00

SMILES: CC(CC(=O)O)c1ccc(OCc2ccc3c(-c4ccc(-c5ccccc5)cc4)nn(C4CCCC4)c3c2)cc1 (centres unmarked) [Compound 24, 3-(4-((3-([1,1'-biphenyl]-4-yl)-1-cyclopentyl-1H-indazol-6-yl)methoxy)phenyl)butanoic acid]
pIC50 (Table 2, IC50 class): < 6.00

SMILES: COc1ccc(-c2nn(C3CCCC3)c3cc(COc4ccc([C@H](C)CC(=O)O)cc4)ccc23)cc1 [Compound 57, (R)-3-(4-((1-cyclopentyl-3-(4-methoxyphenyl)-1H-indazol-6-yl)methoxy)phenyl)butanoic acid]
pIC50 (Table 4, IC50 class): < 6.00

SMILES: CCOc1ccc(-c2nn(C3CCCC3)c3cc(COc4ccc(C(C)CC(=O)O)cc4)ccc23)cc1 (centres unmarked) [Compound 29, 3-(4-((1-cyclopentyl-3-(4-ethoxyphenyl)-1H-indazol-6-yl)methoxy)phenyl)butanoic acid]
pIC50 (Table 2, IC50 class): < 6.00

SMILES: C[C@@H](CC(=O)O)c1ccc(OCc2ccc3c(-c4ccc(O)cc4Cl)nn(C4CCCC4)c3c2)cc1 [Compound 42, (S)-3-(4-((3-(2-chloro-4-hydroxyphenyl)-1-cyclopentyl-1H-indazol-6-yl)methoxy)phenyl)butanoic acid]
pIC50 (Table 3, IC50 class): 6.00 to 7.00

SMILES: C[C@@H](CC(=O)O)c1ccc(OCc2ccc3c(-c4cc(F)c(O)cc4F)nn(C4CCCC4)c3c2)cc1 [Compound 45, (S)-3-(4-((1-cyclopentyl-3-(2,5-difluoro-4-hydroxyphenyl)-1H-indazol-6-yl)methoxy)phenyl)butanoic acid]
pIC50 (Table 3, IC50 class): 6.00 to 7.00

SMILES: CC(CC(=O)O)c1ccc(OCc2ccc3c(-c4cccc5ccccc45)nn(C4CCCC4)c3c2)cc1 (centres unmarked) [Compound 26, 3-(4-((1-cyclopentyl-3-(naphthalen-1-yl)-1H-indazol-6-yl)methoxy)phenyl)butanoic acid]
pIC50 (Table 2, IC50 class): < 6.00

SMILES: C[C@@H](CC(=O)O)c1ccc(OCc2ccc3c(-c4cc(Cl)c(O)cc4Cl)nn(C4CCCC4)c3c2)cc1 [Compound 46, (S)-3-(4-((1-cyclopentyl-3-(2,5-dichloro-4-hydroxyphenyl)-1H-indazol-6-yl)methoxy)phenyl)butanoic acid]
pIC50 (Table 3, IC50 class): 6.00 to 7.00
